Values quoted from earlier work in patent US9583325B2, “System and method of delicate membrane condensed phase membrane introduction mass spectrometry (CP-MIMS)” (priority 2013, dated 2017).

Details: Table 1, SRC Physical Properties Database

| Compound | Log Kow |
| --- | --- |
| CC(C)C1=CC2=CC[C@@H]3[C@](C)(CCC[C@@]3(C)C(=O)O)[C@H]2CC1 [Abietic Acid, Abietic acid] | 6.46 |
| Oc1cc(Cl)ccc1Oc1ccc(Cl)cc1Cl [Triclosan, 5-chloro-2-(2,4-dichlorophenoxy)phenol] | 4.76 |
| nonylphenol | 5.76 |
| Cc1ccc(C)c(OCCCC(C)(C)C(=O)O)c1 [Gemfibrozil, 5-(2,5-dimethylphenoxy)-2,2-dimethyl-pentanoic acid] | 4.30 |

Same assay, conditions: values given in text of Example 10

| Compound | log Kow |
| --- | --- |
| nonylphenol | 6.04 |

Details: SRC Physical Properties Database

| Compound | Vapour pressure |
| --- | --- |
| CC(C)C1=CC2=CC[C@@H]3[C@](C)(CCC[C@@]3(C)C(=O)O)[C@H]2CC1 [Abietic Acid, Abietic acid] | 4.3 × 10^−5 Pa |
| Oc1cc(Cl)ccc1Oc1ccc(Cl)cc1Cl [Triclosan, 5-chloro-2-(2,4-dichlorophenoxy)phenol] | 8.6 × 10^−5 Pa |
| nonylphenol | 1.15 Pa |
| Cc1ccc(C)c(OCCCC(C)(C)C(=O)O)c1 [Gemfibrozil, 5-(2,5-dimethylphenoxy)-2,2-dimethyl-pentanoic acid] | 8.1 × 10^−5 Pa |
